Assay results taken from patent US10640495B2, “Heterocycle derivatives having TrkA inhibitory activity” (Shionogi & Co., Ltd., priority 2015, dated 2020).

These molecules were tested against human TrkA (Homo sapiens (Human), UniProt P04629) (assay: Human TrkA inhibition assay (Test Example 2)). Conditions: Table 152, human TrkA inhibition; read-out: IC50_nM.
Format: biochemical
Method: Seven point five μL per well of human TrkA (PV3144, Lifetechnologies, final concentration: 1 nmol/L) suspended in the assay buffer (100 mmol/L 4-(2-hydroxyethyl)-1-piperazineethanesulfonic acid (HEPES), 10 mmol/L magnecium chloride, 0.003 vol % Brij-35, 0.004 vol % Tween20 and 1 mmol/L dithiothreitol (DTT)) was applied in a 384 well plate and the plate was pre-incubated for 15 min at room temperature with 0.4 μL of each compound (final concentration: 200 μmol/L-1 pmol/L) dissolved in DMSO. Then, fluorescent substrate (FL-peptide 27, 760424, PerkinElmer, final concentration: 1.5 μmol/L) and ATP (final concentration 500 μmol/L) dissolved in the assay buffer was added in each well. After the incubation of 120 min at 37° C., fifteen μL of termination buffer (100 mmol/L HEPES, 40 mmol/L ethylenediaminetetraacetic acid (EDTA), 10 mmol/L magnecium chloride, 0.003 vol % Brij-35, 0.004 vol % Tween20, 1 mmol/L DTT and 0.16 vol % Coating Reagent 3) was added in each well to stop the enzyme reaction. Fluorescent intensities (FI) of phosphorylated and non-phosphorylated fluorescent substrates were measured by LabChip EZReader II (Caliper LifeSciences, Inc.), and conversion ratio (CR) was calculated by the following formula-1. The CR in the well applied with DMSO alone was used as a negative control and the CR in the well without applying TrkA was used as a positive control. The inhibitory effect of each compound on TrkA phosphorylation was calculated by the following formula-2. CR (%)=(FI of phosphorylated substrate/(FI of phosphorylated substrate+FI of non-phosphorylated substrate))×100 (Formula-1) Phosphorylation inhibition (%)=(1−(CR with compound treatment−CR of positive control)/(CR of negative control−CR of positive control))×100 (Formula-2)
IC50 values (nmol/L) were determined by the logistic regression using the inhibition data in 10 points of 3-fold dilution series at a compound concentration range of 20 nmol/L to 1 pmol/L, or 10 points of 3-fold dilution series at the range of 2 μmol/L to 0.1 nmol/L, or 10 points of 3-fold dilution series at the range of 200 μmol/L to 10 nmol/L, or 15 points of 3-fold dilution series at the range of 200 μmol/L to 0.04 nmol/L.
The evaluation results of the compounds in the present invention are indicated as follows. IC50 values of 0 to 100 nM, 100 to 1000 nM and over 1000 nM were shown as “A”, “B” and “C”, respectively.

Sequence of human TrkA (P04629 440-796): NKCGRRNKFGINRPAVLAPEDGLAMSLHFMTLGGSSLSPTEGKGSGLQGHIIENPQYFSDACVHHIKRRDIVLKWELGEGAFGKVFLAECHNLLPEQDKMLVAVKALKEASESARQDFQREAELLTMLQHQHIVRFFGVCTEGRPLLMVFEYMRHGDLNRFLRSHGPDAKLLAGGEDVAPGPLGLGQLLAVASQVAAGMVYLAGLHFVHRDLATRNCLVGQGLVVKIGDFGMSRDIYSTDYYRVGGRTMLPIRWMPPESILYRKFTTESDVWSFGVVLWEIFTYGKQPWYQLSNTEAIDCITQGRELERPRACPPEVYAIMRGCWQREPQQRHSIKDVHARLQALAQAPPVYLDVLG

IC50 [nM] | SMILES
< 100 | COCCN1C[C@@H](NC(=O)Nc2c(C)c(-c3cnc(C)nc3)nn2-c2ccccc2)[C@H](c2ccc(F)c(F)c2)O1 (racemic) [Compound I-26]
< 100 | COCCN1C[C@@H](NC(=O)Nc2c(C)c(C3=CCN(C(C)=O)CC3)nn2-c2ccccc2)[C@H](c2ccnc(F)c2)O1 (racemic) [Compound I-42]

Same assay, conditions: Table 153, human TrkA inhibition; read-out: IC50

IC50 [nM] | SMILES
< 100 | CNC(=O)c1cc(-c2nn(-c3ccccc3)c(NC(=O)N[C@@H]3CN(CCOC)O[C@H]3c3cccc(F)c3)c2C)cn(C)c1=O (racemic) [Compound I-143]
< 100 | COCCN1C[C@@H](NC(=O)Nc2c(C)c(-c3cnc(N=S(C)(C)=O)c(C)c3)nn2-c2ccccc2)[C@H](c2ccc(F)c(F)c2)O1 (racemic) [Compound I-92]
< 100 | COCCN1C[C@@H](NC(=O)Nc2c(C)c(-c3cnc(C(=O)NCC4CC4)c(C)c3)nn2-c2ccccc2)[C@H](c2ccnc(F)c2)O1 (racemic) [Compound I-170]
< 100 | COCCN1C[C@@H](NC(=O)Nc2c(C)c(-c3cnc4c(c3)ncn4C)nn2-c2ccccc2)[C@H](c2cccc(F)c2)O1 (racemic) [Compound I-141]
< 100 | COCCN1C[C@@H](NC(=O)Nc2c(C)c(-c3cnc(C)nc3)nn2-c2ccccc2)[C@H](c2ccc(F)cc2)O1 (racemic) [Compound I-117]
< 100 | CNC(=O)c1cc(-c2nn(-c3ccccc3)c(NC(=O)N[C@@H]3CN(CCOC)O[C@H]3c3ccccc3)c2C)cn(C)c1=O (racemic) [Compound I-163]

Same assay, conditions: Table 154, human TrkA inhibition; read-out: IC50

IC50 [nM] | SMILES
100 to 1000 | Cc1c(-c2cnc3c(cnn3C)c2)nn(-c2ccccc2)c1NC(=O)N[C@@H]1CN(Cc2cn[nH]c2)O[C@H]1c1ccc(F)c(F)c1 (racemic) [Compound I-204]
< 100 | CNC(=O)c1cc(-c2nn(-c3ccccc3)c(NC(=O)N[C@@H]3CN(CCOC)O[C@H]3c3ccnc(F)c3)c2C)cnc1OC [Compound I-191]
< 100 | COCCN1C[C@@H](NC(=O)Nc2c(C)c(-c3cnc4c(c3)nc(C(N)=O)n4C)nn2-c2ccccc2)[C@H](c2ccnc(F)c2)O1 (racemic) [Compound I-219]
< 100 | COCCN1C[C@@H](NC(=O)Nc2c(C)c(-c3cnc4cccnc4c3)nn2-c2ccccc2)[C@H](c2ccnc(F)c2)O1 (racemic) [Compound I-188]
< 100 | COCCN1C[C@@H](NC(=O)Nc2c(C)c(-c3cnc4c(c3)nc(C(F)(F)F)n4C)nn2-c2ccccc2)[C@H](c2ccnc(F)c2)O1 (racemic) [Compound I-226]
< 100 | COCCC1C[C@@H](NC(=O)Nc2c(C)c(-c3cnc(COC(=O)C(C)(C)C)nc3)nn2-c2ccccc2)[C@H](c2ccccc2)O1 (some centres unmarked) [Compound I-294]
< 100 | COCCN1C[C@@H](NC(=O)Nc2c(C)c(-c3cnc4c(cnn4C)c3)nn2-c2ccc(F)cc2)[C@H](c2ccnc(F)c2)O1 (racemic) [Compound I-223]
< 100 | COCCN1C[C@@H](NC(=O)Nc2c(C)c(-c3ccnc(C(=O)OC)c3)nn2-c2ccccc2)[C@H](c2ccc(F)c(F)c2)O1 (racemic) [Compound I-189]

Same assay, conditions: Table 155, human TrkA inhibition; read-out: IC50

IC50 [nM] | SMILES
< 100 | COCCN1C[C@@H](NC(=O)Nc2c(C)c(-c3cnc4c(c3)nnn4C)nn2-c2ccccc2)[C@H](c2ccnc(F)c2)O1 [Compound I-342]
< 100 | COCCN1C[C@@H](NC(=O)Nc2c(C)c(-c3cnc4c(c3)OCCO4)nn2-c2ccccc2)[C@H](c2cnc(F)c(F)c2)O1 (racemic) [Compound I-462]
< 100 | COCCN1C[C@@H](NC(=O)Nc2c(C)c(-c3cnc(OC)c(OC)c3)nn2-c2ccccc2)[C@H](c2cnc(F)c(F)c2)O1 (racemic) [Compound I-429]
< 100 | COCCN1C[C@@H](NC(=O)Nc2c(C)c(-c3cnc4c(cnn4CC(=O)OC)c3)nn2-c2ccccc2)[C@H](c2ccnc(F)c2)O1 (racemic) [Compound I-446]
< 100 | COCCN1C[C@@H](NC(=O)Nc2c(C)c(OCC3CN(C)CCO3)nn2-c2ccccc2)[C@H](c2ccnc(F)c2)O1 (some centres unmarked) [Compound I-505]
< 100 | COCCN1C[C@@H](NC(=O)Nc2c(C)c(-c3cnc4c(c3)ncn4CC(=O)N3CCN(C)CC3)nn2-c2ccccc2)[C@H](c2ccnc(F)c2)O1 (racemic) [Compound I-400]
< 100 | COCCN1C[C@@H](NC(=O)Nc2c(C)c(OCC3CC3)nn2-c2ccccc2)[C@H](c2ccnc(F)c2)O1 (racemic) [Compound I-502]
< 100 | COCCN1C[C@@H](NC(=O)Nc2c(C)c(-c3cnc4c(c3)CCC4O)nn2-c2ccccc2)[C@H](c2ccnc(F)c2)O1 (some centres unmarked) [Compound I-353]
< 100 | COCCN1C[C@@H](NC(=O)Nc2c(C)c(-c3cnc4nn(C(F)F)cc4c3)nn2-c2ccccc2)[C@H](c2ccnc(F)c2)O1 (racemic) [Compound I-331]
< 100 | CNC(=O)c1nn(-c2ccccc2)c(NC(=O)N[C@@H]2CN(CCOC)O[C@H]2c2ccnc(F)c2)c1C (racemic) [Compound I-384]
< 100 | COCCN1C[C@@H](NC(=O)Nc2c(C)c(-c3cnc4c(c3)c(CN3CCC(F)(F)C3)nn4C)nn2-c2ccccc2)[C@H](c2ccnc(F)c2)O1 (racemic) [Compound I-423]
< 100 | COCCN1C[C@@H](NC(=O)Nc2c(C)c(-c3cnc4c(c3)c(N3CCN(C)CC3)nn4C)nn2-c2ccccc2)[C@H](c2ccnc(F)c2)O1 (racemic) [Compound I-490]

SMILES | IC50 [nM]
COCCN1C[C@@H](NC(=O)Nc2c(C)c(-c3ccc(N4C[C@H]5COC[C@@H](C4)N5)nc3)nn2-c2ccccc2)[C@H](c2ccnc(F)c2)O1 (racemic) [Compound I-394] | < 100
COCCN1C[C@@H](NC(=O)Nc2c(C)c(-c3cnc(N4C[C@H]5C[C@@H](C4)O5)nc3)nn2-c2ccccc2)[C@H](c2ccnc(F)c2)O1 (racemic) [Compound I-487] | < 100

Same assay, conditions: Table 156, human TrkA inhibition; read-out: IC50

IC50 [nM] | SMILES
< 100 | COCCN1C[C@@H](NC(=O)Nc2c(C)c(OCC3CN(C)CCO3)nn2-c2ccccc2)[C@H](c2ccc(F)c(F)c2)O1 (some centres unmarked) [Compound I-580]
< 100 | Cc1c(OCC2CCNCC2)nn(-c2ccccc2)c1NC(=O)N[C@@H]1CN(CC(F)F)O[C@H]1c1ccc(F)c(F)c1 (racemic) [Compound I-561]
< 100 | CC(=O)N1CCC(COc2nn(-c3ccccc3)c(NC(=O)N[C@@H]3CN(CC(F)F)O[C@H]3c3ccc(F)c(F)c3)c2C)CC1 (racemic) [Compound I-565]
< 100 | COCCN1C[C@@H](NC(=O)Nc2c(C)c(C)nn2-c2ccccc2)[C@H](c2ccnc(F)c2)O1 [Compound I-521]

Same assay, conditions: Table 157, human TrkA inhibition; read-out: IC50

IC50 [nM] | SMILES
100 to 1000 | COCCN1C[C@@H](NC(=O)Nc2c(C)c(CN(C)C)nn2-c2ccccc2)[C@H](c2ccc(F)c(F)c2)O1 [Compound I-640]
< 100 | CCN1C[C@@H](NC(=O)Nc2c(C)c(OCCCCN(C)C)nn2-c2ccccc2)[C@H](c2ccc(F)c(F)c2)O1 (racemic) [Compound I-662]
< 100 | COCCN1C[C@@H](NC(=O)Nc2c(C)c(OCC(O)CO)nn2-c2ccccc2)[C@H](c2ccc(F)c(F)c2)O1 (some centres unmarked) [Compound I-615]
> 1000 | Cc1c(-c2cnc3c(cnn3C)c2)nn(-c2ccccc2)c1NC(=O)N[C@@H]1CN(CCC(F)(F)F)O[C@H]1c1ccc(F)c(F)c1 (racemic) [Compound I-622]
< 100 | Cc1c(-c2cccnc2)nn(-c2ccccc2)c1NC(=O)N[C@@H]1CN(CC(F)F)O[C@H]1c1ccc(F)c(F)c1 (racemic) [Compound I-629]

Same assay, conditions: human TrkA 1 nmol/L, ATP 500 μmol/L, 120 min at 37° C.; read-out: IC50 values (TrkA phosphorylation inhibition)

IC50 [nM] | SMILES
3 | COCCN1C[C@@H](NC(=O)Nc2c(C)c(-c3cnn(C)c3)nn2-c2ccccc2)[C@H](c2cnc(F)c(F)c2)O1 [Compound I-245]
68 | CCN1C[C@@H](NC(=O)Nc2c(C)c(OCC(N)=O)nn2-c2ccccc2)[C@H](c2ccc(F)c(F)c2)O1 (racemic) [Compound I-645]
3.8 | COCCN1C[C@@H](NC(=O)Nc2c(C)c(-c3cnc(OC)c(C(=O)NC4CCOCC4)c3)nn2-c2ccc(F)cc2)[C@H](c2ccnc(F)c2)O1 (racemic) [Compound I-239]
1.7 | COCCN1C[C@@H](NC(=O)Nc2c(C)c(OCCCN(C)C)nn2-c2ccccc2)[C@H](c2ccc(F)c(F)c2)O1 [Compound I-552]
22 | COCCN1C[C@@H](NC(=O)Nc2c(C)c(OCC(C)(C)O)nn2-c2ccccc2)[C@H](c2cnc(F)c(F)c2)O1 [Compound I-82]
